Results: ChEMBL document CHEMBL5614404, “Optimization of potent, broad-spectrum, and specific anti-influenza compounds targeting RNA polymerase PA-PB1 heterodimerization” (Eur J Med Chem, 2024)

Assays:
[1] = molecular target: T1, RNA-directed RNA polymerase (Influenza A virus (strain A/Puerto Rico/8/1934 H1N1), UniProt P03428+P03431+P03433); assay: Inhibition of Influenza A virus RdRp transfected in HEK293T cells co-expressing PA/PB1/PB2/NP/firefly luciferase/Renilla luciferase assessed as impaired nuclear import preincubated for 4 hrs followed by medium replacement with compound measured after 20 hrs by minireplicon assay; assay type: cell-based
Influenza A virus [2] = assay: Antiviral activity against Amantadine-resistant Influenza A virus California/07/2009 (H1N1) clinical isolate infected in MDCK cells expressing ST6Gal by crystal violet staining based plaque reduction assay; assay type: functional, organism-based
Influenza A virus [3] = assay: Antiviral activity against Amantadine/Oseltamivir-resistant Influenza A virus Denmark/528/2009 (H1N1) clinical isolate infected in MDCK cells expressing ST6Gal by crystal violet staining based plaque reduction assay; assay type: functional, organism-based
[4] = molecular target: T1, RNA-directed RNA polymerase; assay: Inhibition of Influenza A virus RdRp transfected in HEK293T cells co-expressing PA/PB1/PB2/NP/firefly luciferase/Renilla luciferase preincubated for 4 hrs followed by medium replacement with compound measured after 20 hrs by minireplicon assay; assay type: cell-based
Influenza A virus [5] = assay: Antiviral activity against Influenza A virus PR/8/34 infected in human A549 cells assessed as reduction in viral progeny preincubated for 1 hr followed by media replacement with compound measured after 23 hrs by virus yeild reduction assay; assay type: functional, organism-based; details: for EC50: PR/8/34, A549; for Activity: time 24.0 hrs
Influenza A virus [6] = assay: Antiviral activity against Oseltamivir-resistant Influenza A virus Parma/24/09 (H1N1) infected in MDCK cells incubated for 48 hrs by plaque reduction assay; assay type: functional, organism-based
Influenza A virus [7] = assay: Antiviral activity against Amantadine-resistant/Oseltamivir-sensitive Influenza A virus Switzerland/9715293/2013 (H3N2) infected in MDCK cells by plaque reduction assay; assay type: functional, organism-based
Influenza A virus [8] = assay: Antiviral activity against Amantadine/Oseltamivir-resistant Influenza A virus Denmark/528/2009 (H1N1) infected in MDCK cells by plaque reduction assay; assay type: functional, organism-based
Influenza A virus [9] = assay: Antiviral activity against Amantadine-resistant/Oseltamivir-sensitive Influenza A virus California/07/2009 (H1N1) infected in MDCK cells by plaque reduction assay; assay type: functional, organism-based
Influenza B virus = assay: Antiviral activity against Amantadine-resistant/Oseltamivir-sensitive Influenza B virus Wisconsin/01/2010 infected in MDCK cells by plaque reduction assay; assay type: functional, organism-based; details: Wisconsin/01/2010, MDCK
Influenza A virus [10] = assay: Antiviral activity against Amantadine/Oseltamivir-resistant Influenza A virus Texas/04/2009 (H1N1) infected in MDCK cells by plaque reduction assay; assay type: functional, organism-based
Influenza A virus [11] = assay: Antiviral activity against Amantadine/Oseltamivir-resistant Influenza A virus North Carolina/39/2009 (H1N1) infected in MDCK cells by plaque reduction assay; assay type: functional, organism-based
Influenza A virus [12] = assay: Antiviral activity against Amantadine/Oseltamivir-resistant Influenza A virus Washington/29/2009 (H1N1) infected in MDCK cells by plaque reduction assay; assay type: functional, organism-based
Influenza A virus [13] = assay: Antiviral activity against Amantadine-resistant/Oseltamivir-sensitive Influenza A virus WSN/1933 (H1N1) infected in MDCK cells by plaque reduction assay; assay type: functional, organism-based

## N#Cc1ccc(C(=O)Nc2sc3c(c2C(=O)Nc2ccc(C(F)(F)F)cc2)CCCCC3)cc1
[1]
  EC50: > 10000 nM

## C[C@@H](c1ccccc1)n1nnnc1[C@H](c1ccsc1)N1CCC(n2c(=O)[nH]c3ccccc32)CC1
Influenza A virus [2]
  EC50: 600 nM
Influenza A virus [3]
  EC50: 600 nM

## O=C(Nc1sc2c(c1C(=O)Nc1ccccn1)CCCCC2)c1ccccc1O
[4]
  IC50: 2800 nM

## O=C(Nc1sc2c(c1C(=O)Nc1ccc(Cl)cc1)CCCCC2)c1ccccc1O
[4]
  IC50: 1000 nM

## O=C(Nc1sc2c(c1C(=O)Nc1ccc(F)cc1)CCCCC2)c1ccccc1O
[4]
  IC50: 470 nM

## O=C(Nc1sc2c(c1C(=O)Nc1nccs1)CCCCC2)c1ccccc1O
[4]
  IC50: 330 nM

## NC(=O)c1nc(F)cnc1O
Influenza A virus [5]
  EC50: 7930 nM

## O=C(Nc1sc2c(c1C(=O)Nc1ccccn1)CCCCC2)c1ccc([N+](=O)[O-])cc1
[4]
  IC50: 270 nM

## NC(=O)c1ncn([C@@H]2O[C@H](CO)[C@@H](O)[C@H]2O)n1 [RIBAVIRIN]
[1]
  EC50: 21700 nM
Influenza A virus [6]
  EC50: 22000 nM

## N#Cc1ccc(C(=O)Nc2sc3c(c2C(=O)Nc2ccccc2O)CCCCC3)cc1
[1]
  EC50: 32 nM
Influenza A virus [5]
  EC50: 140 nM
  Activity: Dose-Dependent Effect
Influenza A virus [6]
  EC50: 280 nM

## O=C(Nc1sc2c(c1C(=O)Nc1ccccc1O)CCCCC2)c1ccc([N+](=O)[O-])cc1O
[1]
  EC50: 130 nM
Influenza A virus [5]
  EC50: 87 nM
  Activity: Dose-Dependent Effect
Influenza A virus [6]
  EC50: 81 nM

## O=C1C(c2ncc([N+](=O)[O-])s2)CC[C@@H]2CCCC[C@@H]12 (some centres not stated)
Influenza A virus [7]
  EC50: 930 nM
Influenza A virus [8]
  EC50: 930 nM
Influenza A virus [9]
  EC50: 930 nM
Influenza B virus
  EC50: 930 nM
Influenza A virus [10]
  EC50: 930 nM
Influenza A virus [11]
  EC50: 930 nM
Influenza A virus [12]
  EC50: 930 nM
Influenza A virus [13]
  EC50: 930 nM
